pEC50: −log10 of the molar value. Entries after “also recorded” stand apart in the source; their conditions may differ.
Assays:
human topoisomerase II = target: T1, human topoisomerase II (Homo sapiens, UniProt P11388); assay: Mammalian (human) topoisomerase II inhibition assay: topo II-DNA complex stabilisation; assay type: biochemical; details: concentration with activity equal to the EC50 of reference mAMSA; 20 min at 37° C.
T1 construct: Topo II was purified from late log phase suspension cultures of HeLa WIS; endogenous in cells; host or cells: HeLa WIS (late log phase suspension cultures); native enzyme purified in house
T1 sequence (P11388 whole entry): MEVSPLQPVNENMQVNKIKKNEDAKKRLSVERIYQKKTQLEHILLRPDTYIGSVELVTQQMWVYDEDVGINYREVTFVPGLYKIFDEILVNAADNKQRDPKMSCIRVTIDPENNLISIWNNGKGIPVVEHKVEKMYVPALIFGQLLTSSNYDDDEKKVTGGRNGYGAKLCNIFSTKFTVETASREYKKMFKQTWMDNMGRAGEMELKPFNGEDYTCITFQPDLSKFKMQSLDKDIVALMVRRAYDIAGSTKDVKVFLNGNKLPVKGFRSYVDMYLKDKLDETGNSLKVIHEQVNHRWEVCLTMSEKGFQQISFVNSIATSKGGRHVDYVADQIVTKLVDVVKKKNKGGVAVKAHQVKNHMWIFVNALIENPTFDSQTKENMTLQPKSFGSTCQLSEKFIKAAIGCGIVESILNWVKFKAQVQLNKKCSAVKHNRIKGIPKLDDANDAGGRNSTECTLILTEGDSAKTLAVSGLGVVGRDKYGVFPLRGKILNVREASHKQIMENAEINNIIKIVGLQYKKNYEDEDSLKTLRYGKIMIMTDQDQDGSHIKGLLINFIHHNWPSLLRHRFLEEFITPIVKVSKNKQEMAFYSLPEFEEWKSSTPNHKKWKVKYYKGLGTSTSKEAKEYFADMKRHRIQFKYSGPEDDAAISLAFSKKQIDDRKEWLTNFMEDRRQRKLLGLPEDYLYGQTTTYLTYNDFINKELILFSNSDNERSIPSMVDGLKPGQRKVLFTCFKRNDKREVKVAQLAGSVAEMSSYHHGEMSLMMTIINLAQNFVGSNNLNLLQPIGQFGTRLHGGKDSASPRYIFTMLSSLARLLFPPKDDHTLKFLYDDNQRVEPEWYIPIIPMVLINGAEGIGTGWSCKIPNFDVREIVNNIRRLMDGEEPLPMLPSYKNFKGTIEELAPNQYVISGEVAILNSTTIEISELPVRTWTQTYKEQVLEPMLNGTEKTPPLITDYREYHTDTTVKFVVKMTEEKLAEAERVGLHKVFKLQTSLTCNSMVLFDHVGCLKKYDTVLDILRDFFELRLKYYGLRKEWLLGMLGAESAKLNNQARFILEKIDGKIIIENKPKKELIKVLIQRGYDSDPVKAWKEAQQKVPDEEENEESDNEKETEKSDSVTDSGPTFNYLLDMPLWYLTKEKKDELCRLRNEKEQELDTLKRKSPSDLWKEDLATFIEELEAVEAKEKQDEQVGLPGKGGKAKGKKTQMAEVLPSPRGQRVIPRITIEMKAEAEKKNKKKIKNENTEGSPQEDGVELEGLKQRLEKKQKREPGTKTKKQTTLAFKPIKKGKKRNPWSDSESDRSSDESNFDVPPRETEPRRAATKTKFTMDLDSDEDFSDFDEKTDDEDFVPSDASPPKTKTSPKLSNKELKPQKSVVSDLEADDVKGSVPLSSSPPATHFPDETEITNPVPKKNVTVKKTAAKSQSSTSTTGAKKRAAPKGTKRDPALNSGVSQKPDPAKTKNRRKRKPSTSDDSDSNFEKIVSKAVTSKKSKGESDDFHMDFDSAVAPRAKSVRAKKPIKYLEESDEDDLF
Excerpt: Mammalian Topoisomerase II Inhibition Assay Procedure
The inhibition of human topoisomerase II (hereafter topo II) was quantitated by a procedure adapted from that described by Trask et al., EMBO J., 3, 671-676 (1984). The assay quantitates the amount of topo II covalently complexed by DNA at equilibrium during a topo II reaction. This assay determines the potential of a compound to stabilize this complex, which potential is closely related to the cytotoxicity of the compound.
Topo II was purified from late log phase suspension cultures of HeLa WIS by an adaption of the method described by Per et al., Mol. Pharmacol., 32, 17-25 (1987).
Assays (in duplicate) were assembled at 4° C. Assay mix (25 μl) was distributed in Beckman (No. 265270) 1.5 ml microtitre tubes followed by the addition of 5 μl test compound to yield the final concentrations of assay components:
4 ng 3' end labeled (32p) pBR322 DNA (10^7 DPM/μg)
The assay mix including the test compound was incubated for 20 minutes at 37° C. The reaction was terminated at 37° C. by the addition of 3 μl 10% SDS followed by the addition of 266 μl 10 mM Tris-Cl pH 7.5, 20 μg/ml BSA, 20 μg/ml calf thymus DNA, 1% SDS.
A SDS/protein precipitate was formed by the addition of 28 μl 2.5M KCl followed by chilling on ice for a minimum of 10 minutes. The precipitate was collected and washed with a Brandell cell harvester on a GFB glass fiber filter membrane as follows. The contents of the assay tube were drawn up into the harvester. The tube was then rinsed 7× with 10 mM Tris-Cl pH 7.5, 1 mM EDTA and 100 mM KCl. The precipitate was washed with 1 L of a solution of 10 mM Tris-Cl pH 7.5, 1 mM EDTA, 100 mM KCl followed by 1 L of 95% ethyl alcohol and finally 0.5 L 70% of ethyl alcohol (per 48 samples in each case). After drying, CPM was determined by liquid scintillation counting with 5 ml Biofluor (NEN Research Products) or Readisafe (Beckman Instruments Inc.) cocktail.
Preparation of test compound--A stock solution (6 mg/ml) of test compound was prepared either in 0.1N sodium hydroxide or 0.2N hydrogen chloride. This solution then was diluted 1/5 into water and serially thereafter in either 0.02N sodium hydroxide or 0.04N hydrogen chloride, respectively. The stock solution and serial dilution of the test compound was stored at -20° C. prior to testing.
Screening of test compound--As an initial screen, the test compound was tested at a final concentration of 2, 20 and 200 μg/ml.
Controls--A solvent control which indicates the base level of topo II-DNA complex formed in the absence of the test compound was included in each test. A control, in which topo II was omitted, was included for each test compound at the highest drug concentration tested.
Reference agent--A dose response curve with mAMSA at 0.01, 0.08, 0.16, 0.32, 1.0 and 10 μg/ml was included in each test.
Data reduction--The EC50 (effective concentration at which 50% of the maximal DNA-topo II complex is formed) of a test compound is defined to be the concentration with activity equal to the EC50 of the reference agent, mAMSA. The maximal DNA-topo II complex formed is taken as that equal to that formed at the nearly saturating dose of mAMSA (10 μg/ml).

[1] = In vivo antitumor assay, B16 melanoma (IP); set-up: species or system mice; details: mouse, in vivo; B16(IP) 0.5 ml 10% brie; drug IP; QD1,5,9; read-out: Maximum Tolerated Total Dose
Excerpt: (§1) In vivo Antitumor Assay Procedure
(§2) Mice: Inbred: C3H/He; and Hybrids: B6D2F1 (C57BL/6 females×DBA/2 males), CD2F1 (Balb/c females×DBA/2 males) and B6C3F1 (C57BL/6×C3H) were bred at Wayne State University from strains obtained from the Frederick Cancer Research Facility, Frederick, Md. or from commercial suppliers.
(§3) Tumors: Murine Tumors: P388 leukemia and the following transplantable solid tumors of mice were used for in vivo testing: B16 melanoma, pancreatic ductal adenocarcinoma No. 03, colon adenocarcinoma No. 38 and mammary ductal adenocarcinoma No. 16/C. All tumors are in the Developmental Therapeutics Program frozen tumor repository, maintained by the Biological Testing Branch, Frederick, Md. Each has a detailed description, code identification number, and list of references at the National Tumor Repository. Tumors were maintained in the mouse strain of origin and were transplanted in the appropriate F1 hybrid (or the strain of origin) for therapy trials. The mice were supplied food and water ad libitum.
(§4) For P388 leukemia and B16 melanoma studies the tumor cells were implanted IP on day zero and treatment was started on day one (also IP). Titered controls were also included to facilitate the calculation of tumor cell kill.
(§5) End Points for Assessing Antitumor Activity: Quantitative end points used to assess antitumor activity included % Increased Life Span (% ILS), Tumor Cell Kill (Log10 kill), and Tumor Growth Inhibition (T/C). Long Term Survivors (45 or 60 day) were excluded from calculations of % ILS and Tumor Cell Kill.
(§6) Endpoints were calculated as follows: [formula] where Dt is the median day of death for treated and Dc is the median day of death for control groups.
(§7) The log10 cell kill was calculated from the following formula: [formula] where T-C is the tumor difference in the median day of death between the treated (T) and the control (C) groups and Td is the tumor doubling time (in days), the latter estimated from the best fit straight line from a log-linear growth plot of the control-group tumors in exponential growth. The conversion of the T-C values to log10 cell kill is possible because the Td for tumors regrowing post-treatment approximated the Td values of the tumors in untreated control mice.

B16 melanoma = assay: In vivo antitumor assay, B16 melanoma (IP); set-up: species or system mice
Excerpt: as §1, §2, §3, §4, §5, §6, §7

[2] = Toxicity observations in mice of the in vivo antitumor trials
Excerpt: Dose limiting toxicity appeared to be leukopenia, based on small spleen sizes in necropsy of mice dying at lethal dosage levels. […] Host recovery was rapid, with mice regaining their lost body weight within two to five days post nadir (at the highest non-toxic dosage levels).

Structure (SMILES): Cc1cc(-c2c(F)cc3c(=O)c(C(=O)O)cn4c3c2SC[C@@H]4C)cc(C)n1 [Example 5, (S)-10-(2,6-Dimethyl-4-pyridinyl)-9-fluoro-3-methyl-7-oxo-2,3-dihydro-7H-pyrido[1,2,3-de][1,4]benzothiazine-6-carboxylic acid]
- pEC50 (human topoisomerase II): 5.03
- MTD [1]: 1500 mg/kg
- % ILS (B16 melanoma; B16(IP), drug IP, QD1,5,9, 1500 mg/kg total): 66%
- Long Term Survivors (B16 melanoma; B16(IP), drug IP, QD1,5,9, 1500 mg/kg total, footnote 5: Day 60, tumor evident): 1/6
- antitumor activity (in words) (B16 melanoma; B16 melanoma IP): Day 60; tumor evident; also recorded: good activity
- log10 tumor cell kill (B16 melanoma; B16 melanoma IP): 2.0 log10
- Dose limiting toxicity ([2]; based on small spleen sizes in necropsy of mice dying at lethal dosage levels): leukopenia
- host recovery (in words) ([2]; mouse, in vivo): rapid
- host recovery: time to regain lost body weight post nadir ([2]; mouse, in vivo): two to five
- tolerability ([2]; mouse, in vivo): well tolerated with no long delayed toxicity problems

Reference: patent US5308843A, “Method of inhibiting mammalian topoisomerase II and malignant cell growth in mammals, with substituted (S)-3-methyl-7-oxo-2,3-dihydro-7H-pyrido[1,2,3-de][1,4 ]-benzoxazine(and-benzothiazine)-6-carboxylic acids” (Sterling Drug Inc., priority 1990, dated 1994)
